Experimental data reported in patent publication US12115209B2, “ROMO1-derived antimicrobial peptides including lysine substitution and variants thereof” (KOREA UNIVERSITY RESEARCH AND BUSINESS FOUNDATION, priority 2019, dated 2024).
No end group written: not given here.

Legend:
Assay in all cases: Minimum bactericidal concentration (MBC) assay
Assay type in all cases: cell-based
CRPA = settings: Tables 11-21, no unit printed
[1] = test system: Pseudomonas aeruginosa (ATCC 27853); settings: for MBC Pseudomonas aeruginosa: Tables 11-21, no unit printed
Protocol: (§1) First, each of Pseudomonas aeruginosa (ATCC 27853) and Staphylococcus aureus (ATCC 29213) was cultured in 3% (w/v) TSB (tryptic soy broth) liquid medium at 37° C. and 200 rpm for 4 hours, and then further cultured under the same conditions for 3 hours to a concentration of 5×10^6 CFU/ml. Strain solutions were prepared by diluting each of the further cultured strains with SP (sodium phosphate; 10 mM sodium phosphate, 1% TSB) buffer to a final concentration of 2×10^5 CFU/ml.
(§2) Then, each peptide at varying concentrations (0 μg/ml to 300 μg/ml) was dispensed into each well of a 96-well microplate, and 100 μl (1×10^5 CFU/ml) of each of the prepared strain solutions was added thereto, mixed therewith, and allowed to react with the peptide in an incubator at 37° C. for 1 hour.
(§3) In addition, 30 g/L of TS (tryptic soy) and 15 g/L of agar were dissolved in distilled water and sterilized, and then 25 ml of the solution was poured onto a 100 mm round plate and solidified at room temperature for one day or more, thereby preparing a TS agar plate. 10 μl of each reaction solution of the peptide and the strain was plated on the TS agar plate at a constant size, and incubated in an incubator at 37° C. for 18 hours, and then colony formation on the plate was checked. The minimum bactericidal concentration was defined as the minimum concentration of the peptide at which no colony was formed, and the experimental results are shown in Table 1 below.

[2] = test system: Methicillin-resistant Staphylococcus aureus (MRSA, ATCC 33591); settings: Tables 11-21, no unit printed
Protocol: as §1, with “2×10^5 CFU/ml. […]” for “2×10^5 CFU/ml.”
as §3, with “checked.” for “checked. The minimum bactericidal concentration was defined as the minimum concentration of the peptide at which no colony was formed, and the experimental results are shown in Table 1 below.”
Specifically, each type of bacteria was cultured in 3% (w/v) TSB (tryptic soy broth) liquid medium at 37° C. and 200 rpm for 4 hours, and then further cultured under the same conditions for 3 hours to a concentration of 5×10^6 CFU/ml. Strain solutions were prepared by diluting each of the further cultured strains with SP buffer to a final concentration of 2×10^5 CFU/ml.
as §2, with “Then, the KU-5878” for “Then, each”
In addition, 10 μl of each reaction solution of the peptide and the strain was plated on the TS agar plate at a constant size, and incubated in an incubator at 37° C. for 18 hours, and then colony formation on the plate was checked.

[3] = test system: Staphylococcus aureus (ATCC 29213); settings: for MBC Staphylococcus aureus: Tables 11-21, no unit printed
Protocol: as §1, §2, §3

Molecule | MBC CRPA (CRPA) [µg/mL] | MBC Pseudomonas aeruginosa [1] [µg/mL] | MBC MRSA [2] [µg/mL] | MBC Staphylococcus aureus [3] [µg/mL] | MBC value (μg/ml) against Pseudomonas aeruginosa ([1]; ATCC 27853, reaction 37° C. 1 hour, no bovine serum) | MBC value (μg/ml) against Staphylococcus aureus ([3]; ATCC 29213, reaction 37° C. 1 hour, no bovine serum)
KTMMQSGGTWGTFMAIGMGIR [KU-5878-F67W] | 80 | 80 | 90 | 80 |  | 
KTMMQSGGTFGTF-AIG-GIR [5878-d71M, d75M] | 300 | 300 | 300 | 250 |  | 
KTMMQSGGTFGTFMAIGMAIR [KU-5878-G76A] | > 300 | > 300 | > 300 | > 300 |  | 
KKMMKKGGKFGTFMA-GMGIR [Peptide 5878-K4-d73I] | > 300 | 300 | > 300 | 300 |  | 
KTMMQSGGTFGTFM-IGMGIR [Peptide 5878-d72A] | 170 | 150 | 160 | 150 |  | 
KTMMQSGGTFGTFMGIGMGIR [KU-5878-A72G] | > 300 | > 300 | > 300 | > 300 |  | 
KTMMQSGGTFGAFMAIGMGIR [KU-5878-T69A] | 300 | 300 | 300 | 300 |  | 
KTMMQSGGTFGTFMAIGMGIK [KU-5878-R78K] | > 300 | > 300 | > 300 | > 300 |  | 
KKMMKKGGKFGT-MAIGMGIR [5878 K4-d70F] | 160 | 100 | 110 | 140 |  | 
KTMMASGGTFGTFMAIGMGIR [KU-5878-Q62A] | > 300 | > 300 | > 300 | > 300 |  | 
KT-MQSGGTFGTFM-IG-GIR [5878-d60M, d72A, d75M] | 300 | 300 | 300 | 280 |  | 
KTMMQSGGTFGTFMAIGMGTR [KU-5878-I77T] | > 300 | > 300 | > 300 | > 300 |  | 
KTMMQSGGTFGTKMAIGMGIR [KU-5878-F70K] | > 300 | > 300 | > 300 | > 300 |  | 
KT-MQS-GTFGTFM-IG-GIR [5878-d60M, d64G, d72A, d75M] | 120 | 120 | 120 | 100 |  | 
ATMMQSGGTFGTFMAIGMGIR [KU-5878-K58A] | > 300 | > 300 | > 300 | > 300 |  | 
-KMMKKGGKFGTFMAIG-GIR [Peptide K4-d58K-d75M] | 160 | 150 | 180 | 150 |  | 
-TMMQSGGTFGTFMAIGMGIR [Peptide 5878-d58K] | 300 | 300 | > 300 | 300 |  | 
KTMMQSGGTFGTFMAIGMGIA [KU-5878-R78A] | > 300 | > 300 | > 300 | > 300 |  | 
KTMMQSGGTFGKFMAIGMGIR [KU-5878-T69K] | 150 | 140 | 150 | 130 |  | 
KTMMQSGGSFGTFMAIGMGIR [KU-5878-T66S] | > 300 | > 300 | > 300 | > 300 |  | 

Molecule | MBC CRPA (CRPA) [µg/mL] | MBC Pseudomonas aeruginosa [1] [µg/mL] | MBC MRSA [2] [µg/mL] | MBC Staphylococcus aureus [3] [µg/mL] | MBC value (μg/ml) against Pseudomonas aeruginosa ([1]; ATCC 27853, reaction 37° C. 1 hour, no bovine serum) | MBC value (μg/ml) against Staphylococcus aureus ([3]; ATCC 29213, reaction 37° C. 1 hour, no bovine serum)
KTAMQSGGTFGTFMAIGMGIR [KU-5878-M60A] | > 300 | > 300 | > 300 | > 300 |  | 
KRMMQSGGTFGTFMAIGMGIR [KU-5878-T59R] | 30 | 30 | 30 | 25 |  | 
KKMMKKGGKFGTFM-IG-GIR [Peptide K4-d72A-d75M] | 200 | 200 | 200 | 200 |  | 
KTMMQKGGTFGTFMAIGMGIR [KU-5878-S63K] | 50 | 60 | 50 | 50 |  | 
KTMMSSGGTFGTFMAIGMGIR [KU-5878-Q62S] | > 300 | > 300 | > 300 | > 300 |  | 
KTMMRSGGTFGTFMAIGMGIR [KU-5878-Q62R] | 80 | 80 | 90 | 80 |  | 
KTMMQAGGTFGTFMAIGMGIR [KU-5878-S63A] | 300 | 300 | > 300 | 300 |  | 
KAMMQSGGTFGTFMAIGMGIR [KU-5878-T59A] | 130 | 150 | 140 | 120 |  | 
KSMMQSGGTFGTFMAIGMGIR [KU-5878-T59S] | > 300 | > 300 | > 300 | > 300 |  | 
KTMMQSGGTFGTFMAIGMGGR [KU-5878-I77G] | 100 | 80 | 90 | 90 |  | 
KTMMQRGGTFGTFMAIGMGIR [KU-5878-S63R] | 20 | 20 | 25 | 15 |  | 
KTMMQSGGTFGTWMAIGMGIR [KU-5878-F70W] | 300 | 300 | > 300 | 300 |  | 
KTMMQSGGTFGTFMAIGMGKR [KU-5878-I77K] | > 300 | > 300 | > 300 | > 300 |  | 
KTMMQSGGTFGTFMAWGMGIR [KU-5878-I73W] | 300 | 300 | > 300 | 300 |  | 
KT-MQS-GTFGTFMAIGMGIR [5878-d60M, d64G] | 100 | 100 | 110 | 100 |  | 
KTMMQSGGTFGTFMAIGMG-R [Peptide 5878-d77I] | > 300 | > 300 | > 300 | > 300 |  | 
KTMMQS-GTFGTF-AIGM-IR [5878-d64G, d71M, d76G] | 200 | 200 | 200 | 200 |  | 
KT-MQS-GTFGTF--IG-GIR [5878-d60M, d64G, d71M, d72A, d75M] | 200 | 200 | 200 | 200 |  | 
K-MMQSGGTFGTFMAIGMGIR [Peptide 5878-d59T] | 150 | 150 | 150 | 150 |  | 
MPVAVGPYGQSQPSCFDRVKMGFVMGCAVGMAAGALFGTFSCLRIGMRGRELMGGIGKTMMQSGGTFGTFMAIGMGIRC (protein, Homo sapiens Romo1) MPVAVGPYGQSQPSCFDRVKMGFVMGCAVGMAAGALFGTFSCLRIGMRGRELMGGIGKTMMQSGGTFGTFMAIGMGIRC |  |  |  |  | Insoluble | Insoluble
